How the values were obtained:
Type in all cases: functional
Settings in all cases: read-out: DIZ
Aspergillus niger [1] = experiment: Antifungal activity against Aspergillus niger at 0.06 mol/L after 2 to 4 days by paper disc method
Staphylococcus aureus [2] = experiment: Antibacterial activity against Staphylococcus aureus at 0.13 mol/L after 12 to 24 hrs by paper disc method
Staphylococcus aureus [3] = experiment: Antibacterial activity against Staphylococcus aureus at 0.03 mol/L after 12 to 24 hrs by paper disc method
Aspergillus niger [4] = experiment: Antifungal activity against Aspergillus niger at 0.13 mol/L after 2 to 4 days by paper disc method
Aspergillus niger [5] = experiment: Antifungal activity against Aspergillus niger at 0.03 mol/L after 2 to 4 days by paper disc method
Penicillium citrinum [6] = experiment: Antifungal activity against Penicillium citrinum at 0.03 mol/L after 2 to 4 days by paper disc method
Escherichia coli [7] = experiment: Antibacterial activity against Escherichia coli at 0.25 mol/L after 12 to 24 hrs by paper disc method
Escherichia coli [8] = experiment: Antibacterial activity against Escherichia coli at 0.13 mol/L after 12 to 24 hrs by paper disc method
Escherichia coli [9] = experiment: Antibacterial activity against Escherichia coli at 0.06 mol/L after 12 to 24 hrs by paper disc method
Staphylococcus aureus [10] = experiment: Antibacterial activity against Staphylococcus aureus at 0.06 mol/L after 12 to 24 hrs by paper disc method
Penicillium citrinum [11] = experiment: Antifungal activity against Penicillium citrinum at 0.13 mol/L after 2 to 4 days by paper disc method
Escherichia coli [12] = experiment: Antibacterial activity against Escherichia coli at 0.03 mol/L after 12 to 24 hrs by paper disc method
Staphylococcus aureus [13] = experiment: Antibacterial activity against Staphylococcus aureus at 0.25 mol/L after 12 to 24 hrs by paper disc method
Penicillium citrinum [14] = experiment: Antifungal activity against Penicillium citrinum at 0.25 mol/L after 2 to 4 days by paper disc method
Penicillium citrinum [15] = experiment: Antifungal activity against Penicillium citrinum at 0.06 mol/L after 2 to 4 days by paper disc method
Aspergillus niger [16] = experiment: Antifungal activity against Aspergillus niger at 0.25 mol/L after 2 to 4 days by paper disc method

Compound	zone of inhibition at 60000 µM (Aspergillus niger [1])	zone of inhibition at 130000 µM (Staphylococcus aureus [2])	zone of inhibition at 30000 µM (Staphylococcus aureus [3])	zone of inhibition at 130000 µM (Aspergillus niger [4])	zone of inhibition at 30000 µM (Aspergillus niger [5])	zone of inhibition at 30000 µM (Penicillium citrinum [6])	zone of inhibition at 250000 µM (Escherichia coli [7])	zone of inhibition at 130000 µM (Escherichia coli [8])	zone of inhibition at 60000 µM (Escherichia coli [9])	zone of inhibition at 60000 µM (Staphylococcus aureus [10])	zone of inhibition at 130000 µM (Penicillium citrinum [11])	zone of inhibition at 30000 µM (Escherichia coli [12])	zone of inhibition at 250000 µM (Staphylococcus aureus [13])	zone of inhibition at 250000 µM (Penicillium citrinum [14])	zone of inhibition at 60000 µM (Penicillium citrinum [15])	zone of inhibition at 250000 µM (Aspergillus niger [16])
COc1ccc(/C=C/C=N/[C@@H](CC(C)C)C(=O)O)cc1	10.5 mm	8 mm	9.7 mm	16 mm	9.7 mm	12 mm	13 mm	14 mm	9.3 mm	8 mm	12 mm	8 mm	10.8 mm	17.7 mm	10 mm	19 mm
CC(/N=C/C=C/c1ccc(Cl)cc1)C(=O)O (stereo unspecified)	19.3 mm	33.5 mm	8.7 mm	24.7 mm	13.8 mm	17.3 mm	12.2 mm	12.5 mm	11.5 mm	10.5 mm	26.3 mm	12 mm	33.7 mm	30.3 mm	24.7 mm	26.7 mm
O=C/C=C/c1ccccc1 [CINNAMALDEHYDE]	16 mm	9 mm	8 mm	22.3 mm	8 mm	12.2 mm	29.5 mm	11 mm	11 mm	8 mm	28.7 mm	8 mm	10.5 mm	29.7 mm	15 mm	26.7 mm
COc1ccc(/C=C/C=N/[C@@H](CCC(=O)O)C(=O)O)cc1	13.2 mm	8 mm	8 mm	20.3 mm	8.8 mm	11.5 mm	18.7 mm	11.7 mm	11.3 mm	8.3 mm	25.3 mm	8 mm	8.3 mm	20.7 mm	13.3 mm	23.2 mm
O=C(O)CC[C@H](/N=C/C=C/c1ccccc1)C(=O)O	13.8 mm	8.2 mm	8 mm	22.7 mm	8 mm	9.7 mm	26 mm	15 mm	8 mm	8 mm	25.3 mm	8 mm	19.7 mm	38 mm	14 mm	25 mm
O=C(O)[C@H](Cc1ccccc1)/N=C/C=C/c1ccc(Cl)cc1	21 mm	29 mm	9 mm	19.7 mm	12.3 mm	18.3 mm	19.5 mm	26 mm	19 mm	13.3 mm	23.2 mm	9.2 mm	33 mm	35 mm	21 mm	26 mm
O=C(O)[C@H](Cc1ccc(O)cc1)/N=C/C=C/c1ccccc1	12.3 mm	11.5 mm	8 mm	18.7 mm	8 mm	12.3 mm	31.3 mm	19.5 mm	8 mm	8 mm	11.5 mm	12 mm	14.2 mm	12 mm	11 mm	12 mm
COc1ccc(/C=C/C=N/CC(=O)O)cc1	8 mm	8 mm	8 mm	17.7 mm	11.3 mm	11.5 mm	13.5 mm	8 mm	8 mm	9 mm	11.7 mm	8 mm	8.7 mm	21 mm	8.7 mm	23.3 mm
COc1ccc(/C=C/C=N/C(C)C(=O)O)cc1 (stereo unspecified)	12.7 mm	8.7 mm	8 mm	10.5 mm	8 mm	9 mm	16.3 mm	8 mm	10 mm	8 mm	9.8 mm	8 mm	12.7 mm	17.7 mm	13.3 mm	15.8 mm
COc1ccc(/C=C/C=N/[C@@H](Cc2ccccc2)C(=O)O)cc1	10.8 mm	8.3 mm	8 mm	13 mm	18.3 mm	14 mm	12.3 mm	13.8 mm	8 mm	8 mm	19.7 mm	13.2 mm	12 mm	24.7 mm	10.5 mm	19 mm
O=C(O)CC[C@H](/N=C/C=C/c1ccc(Cl)cc1)C(=O)O	17.3 mm	20 mm	8.3 mm	23.3 mm	17.7 mm	17 mm	18.3 mm	17.3 mm	12 mm	10.5 mm	23 mm	15.7 mm	31 mm	35 mm	18.7 mm	21 mm

Reference: ChEMBL document CHEMBL3751674, “Synthesis, antimicrobial activity of Schiff base compounds of cinnamaldehyde and amino acids” (2016)
